Assay results: patent publication US20250346616A1 (DIZAL (JIANGSU) PHARMACEUTICAL CO., LTD., priority 2022, published 2025)

Legend:
Recombinant ROCK1 = Recombinant ROCK1 (Homo sapiens (Human), UniProt Q13464); test: Lance Ultra Kinase Assay, ROCK1 inhibition; format: biochemical; conditions: ATP at Km, 30 min pre-incubation, 1 h reaction
Method: The inhibition potency of compounds against these enzymes was assessed using Lance Ultra Kinase Assay. In brief, recombinant kinases were pre-incubated in the presence or absence of compound at room temperature for 30 minutes. The reaction was initiated by the addition of the ATP (Km) and substrate peptide which could be phosphorylated by kinases in the reaction. After 1 h incubation, the reaction was stopped by the addition of the detection reagent mix containing EDTA. The fluorescence was measured at 615 nm and 665 nm, respectively with excitation wavelength at 320 nm. The calculated signal ratio of 665 nm/615 nm is proportional to the kinase activity.

pMLC2 = test: Cellular PD assay, pMLC2 in PASMC (western blot); format: cell-based; conditions: Human Pulmonary Artery Smooth Muscle Cells, 30 min incubation
Method: (§1) PASMC (Human Pulmonary Artery Smooth Muscle Cells) were grown in Smooth Muscle Cell Growth medium (Promocell #C-22162). The cells were resuspended at 3×10^5 cells per well in 6-well plate in Smooth Muscle Cell Growth medium (Promocell #C-22162) and incubated compound concentration range: (10000/1111/333/111/37/12.3/4.1/0.41/0 nM) for 30 min.
(§2) Cells were then placed on ice and washed with ice-cold PBS. Cell lysates were prepared with 2×SDS. Separate proteins by SDS-PAGE 2 hr, transfer of proteins form gel to membrane 90 min, Blocking the membrane with 5% milk 1 hr and incubation in primary antibody overnight at 4° C., Incubate the membrane in HRP-conjugated secondary antibody diluted in blocking buffer (1:2000) for 1 hour at room temperature. Detection using Amersham ECL plus western blotting detection system (LAS4000). The purified product was analysed by SDS PAGE and the amount of target protein calculated by gray scanning by Multi-Gauge V3.0 software.

pMYPT1 = test: Cellular PD assay, pMYPT1 in PASMC (western blot); format: cell-based; conditions: Human Pulmonary Artery Smooth Muscle Cells, 30 min incubation
Method: as §1, §2

HepG2 cells = test: Cell-based phospholipidosis assay (LipidTOX Red); conditions: Homo sapiens, 24 h, LipidTOX Red dye
Method: HepG2 cells were dispensed into Collagen I-coated 96-well black wall/clear bottom assay plates at 5000 cells/90 μL/well.
The assay plates were then incubated at 37° C. for 24 h, […] of 8% paraformaldehyde (4% final) fixative solution containing 8 μg/ml Hoechst 33342 (4 ug/mL final) in DPBS was added to each well. After incubation at room temperature for 25 min, the assay plates were washed with DPBS. The assay plates were sealed and stored at 4° C. before imaging.
The fluorescence intensities (595 nm excitation, 615 nm emission for LipidTOX Red; 352 nm excitation, 461 nm emission for Hoechst 33342) were measured using an High Content Screening System (Operetta, PerkinElmer) with a 10×Fluor objective. […] Average intensities were subjected to Prism and EC50 were calculated.

Recombinant ROCK2 = Recombinant ROCK2 (Homo sapiens (Human), UniProt O75116); test: Lance Ultra Kinase Assay, ROCK2 inhibition; format: biochemical; conditions: ATP at Km, 30 min pre-incubation, 1 h reaction
Chain of Recombinant ROCK2 (O75116 whole entry): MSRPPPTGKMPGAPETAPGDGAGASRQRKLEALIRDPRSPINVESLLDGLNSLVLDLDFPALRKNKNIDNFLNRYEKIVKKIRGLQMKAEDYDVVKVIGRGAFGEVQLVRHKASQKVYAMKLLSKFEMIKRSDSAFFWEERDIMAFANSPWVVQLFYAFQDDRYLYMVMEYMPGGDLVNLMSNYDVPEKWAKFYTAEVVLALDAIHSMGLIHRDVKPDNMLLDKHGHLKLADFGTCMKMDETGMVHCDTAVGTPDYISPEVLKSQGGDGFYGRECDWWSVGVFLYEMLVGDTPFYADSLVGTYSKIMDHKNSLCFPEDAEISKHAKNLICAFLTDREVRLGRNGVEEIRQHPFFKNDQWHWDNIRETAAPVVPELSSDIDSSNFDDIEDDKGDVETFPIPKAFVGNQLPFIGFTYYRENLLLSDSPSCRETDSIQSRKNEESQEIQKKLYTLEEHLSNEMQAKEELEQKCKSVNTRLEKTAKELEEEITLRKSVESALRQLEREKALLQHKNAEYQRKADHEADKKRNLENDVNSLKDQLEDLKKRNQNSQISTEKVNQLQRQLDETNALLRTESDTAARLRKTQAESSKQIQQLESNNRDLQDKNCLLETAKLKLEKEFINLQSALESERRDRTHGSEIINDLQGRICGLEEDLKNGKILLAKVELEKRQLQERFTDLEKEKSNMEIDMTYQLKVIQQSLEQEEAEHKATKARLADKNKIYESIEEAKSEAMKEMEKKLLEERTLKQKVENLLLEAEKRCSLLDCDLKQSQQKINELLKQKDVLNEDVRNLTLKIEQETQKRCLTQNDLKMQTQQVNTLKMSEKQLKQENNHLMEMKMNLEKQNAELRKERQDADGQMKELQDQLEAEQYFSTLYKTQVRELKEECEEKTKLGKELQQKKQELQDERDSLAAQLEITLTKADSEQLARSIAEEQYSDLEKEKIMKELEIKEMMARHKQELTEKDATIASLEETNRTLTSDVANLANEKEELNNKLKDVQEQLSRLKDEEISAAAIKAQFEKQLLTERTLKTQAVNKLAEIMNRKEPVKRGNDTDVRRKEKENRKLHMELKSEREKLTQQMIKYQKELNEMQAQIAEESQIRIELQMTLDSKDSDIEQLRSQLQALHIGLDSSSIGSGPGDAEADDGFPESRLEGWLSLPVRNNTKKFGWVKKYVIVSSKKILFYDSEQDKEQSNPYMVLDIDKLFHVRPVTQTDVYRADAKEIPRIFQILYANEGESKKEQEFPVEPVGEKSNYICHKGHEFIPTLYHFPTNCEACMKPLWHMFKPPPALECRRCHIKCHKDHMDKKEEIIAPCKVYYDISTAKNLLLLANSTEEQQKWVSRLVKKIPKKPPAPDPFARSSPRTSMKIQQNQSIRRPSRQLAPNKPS

Chain of Recombinant ROCK1 (Q13464 whole entry): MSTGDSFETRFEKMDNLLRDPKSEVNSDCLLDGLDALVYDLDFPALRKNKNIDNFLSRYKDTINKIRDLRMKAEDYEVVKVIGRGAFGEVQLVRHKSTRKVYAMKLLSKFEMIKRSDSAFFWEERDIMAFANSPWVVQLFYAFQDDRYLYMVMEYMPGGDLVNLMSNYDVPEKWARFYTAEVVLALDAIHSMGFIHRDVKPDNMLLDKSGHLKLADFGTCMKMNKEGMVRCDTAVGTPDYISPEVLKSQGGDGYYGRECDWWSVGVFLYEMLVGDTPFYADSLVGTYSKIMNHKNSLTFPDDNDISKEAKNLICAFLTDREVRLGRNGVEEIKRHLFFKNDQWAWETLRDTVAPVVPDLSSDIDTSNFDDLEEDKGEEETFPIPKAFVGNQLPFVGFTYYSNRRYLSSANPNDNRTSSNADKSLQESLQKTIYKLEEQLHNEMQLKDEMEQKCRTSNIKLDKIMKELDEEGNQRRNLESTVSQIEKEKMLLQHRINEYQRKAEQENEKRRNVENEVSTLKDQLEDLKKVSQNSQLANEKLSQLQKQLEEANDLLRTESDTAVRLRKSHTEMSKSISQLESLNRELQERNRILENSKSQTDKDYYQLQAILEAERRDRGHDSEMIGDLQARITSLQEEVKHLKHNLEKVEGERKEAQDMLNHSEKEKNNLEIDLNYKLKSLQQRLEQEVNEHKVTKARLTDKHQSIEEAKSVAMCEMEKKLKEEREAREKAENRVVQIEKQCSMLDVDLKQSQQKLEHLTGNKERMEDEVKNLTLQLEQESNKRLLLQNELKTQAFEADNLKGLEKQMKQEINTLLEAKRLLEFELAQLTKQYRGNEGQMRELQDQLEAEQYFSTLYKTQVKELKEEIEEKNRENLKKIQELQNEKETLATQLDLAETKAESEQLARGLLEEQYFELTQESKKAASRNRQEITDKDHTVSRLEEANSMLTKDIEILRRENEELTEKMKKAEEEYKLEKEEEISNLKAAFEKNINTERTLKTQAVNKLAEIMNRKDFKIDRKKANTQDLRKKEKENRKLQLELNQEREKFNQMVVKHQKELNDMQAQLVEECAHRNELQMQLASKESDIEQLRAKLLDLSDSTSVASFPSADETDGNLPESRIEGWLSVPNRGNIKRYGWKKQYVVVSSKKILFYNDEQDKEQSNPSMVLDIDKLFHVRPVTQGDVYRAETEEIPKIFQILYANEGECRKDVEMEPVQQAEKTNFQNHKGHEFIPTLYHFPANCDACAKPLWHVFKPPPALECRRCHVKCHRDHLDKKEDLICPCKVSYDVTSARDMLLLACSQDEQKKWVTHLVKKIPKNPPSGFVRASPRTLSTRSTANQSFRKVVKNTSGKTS

In the case of NC[C@@H](C(=O)Nc1cccc2c(-c3cn[nH]c3)c[nH]c12)c1ccc(COC(=O)CCCCCO[N+](=O)[O-])cc1 [Example 10, [4-[(1S)-1-(aminomethyl)-2-oxo-2-[[3-(1H-pyrazol-4-yl)-1H-indol-7-yl]amino]ethyl]phenyl]methyl 6-nitrooxyhexanoate], the IC50 (Recombinant ROCK1) is reported as 1.6 nM, the IC50 (pMLC2; PASMC, 0.5 h) is reported as 8.1 nM and the IC50 (pMYPT1; PASMC, 0.5 h) is reported as 10 nM. The EC50 (HepG2 cells) was over 66.6 µM.
Work on NCC(C(=O)Nc1cccc2c(-c3cn[nH]c3)c[nH]c12)C1CCCCC1 (racemic) [Example 22, 3-amino-2-cyclohexyl-N-[3-(1H-pyrazol-4-yl)-1H-indol-7-yl]propanamide] yielded an IC50 (Recombinant ROCK1) of 1.1 nM, an IC50 (Recombinant ROCK2) of 0.88 nM and an IC50 (pMLC2; PASMC, 0.5 h) of 13 nM. The IC50 (pMYPT1; PASMC, 0.5 h) was 1.5 nM.
For CN1CCC(C(C(=O)Nc2cccc3c(-c4cn[nH]c4)c[nH]c23)c2ccccc2)CC1 (single isomer, unassigned) [Example 45, N-(3-(1H-pyrazol-4-yl)-1H-indol-7-yl)-2-(1-methylpiperidin-4-yl)-2-phenylacetamide], the IC50 (Recombinant ROCK1) was 0.53 nM, the IC50 (Recombinant ROCK2) was 0.27 nM and the IC50 (pMLC2; PASMC, 0.5 h) was 29 nM. It also gave an IC50 (pMYPT1; PASMC, 0.5 h) of 11 nM.
NCC(C(=O)Nc1cccc2c(-c3cn[nH]c3)c[nH]c12)C1CCOCC1 (single isomer, unassigned) [Example 26, N-(3-(1H-pyrazol-4-yl)-1H-indol-7-yl)-3-amino-2-(tetrahydro-2H-pyran-4-yl)propanamide] gave an IC50 (Recombinant ROCK1) of 1.4 nM, an IC50 (Recombinant ROCK2) of 0.96 nM and an IC50 (pMLC2; PASMC, 0.5 h) of 85 nM. For the same compound, the IC50 (pMYPT1; PASMC, 0.5 h) was 153 nM and the EC50 (HepG2 cells) was over 200 µM.
Work on NCC(C(=O)Nc1cccc2c(-c3cn[nH]c3)c[nH]c12)c1cccnc1 (single isomer, unassigned) [Example 32, N-(3-(1H-pyrazol-4-yl)-1H-indol-7-yl)-3-amino-2-(pyridin-3-yl)propanamide] yielded an IC50 (Recombinant ROCK1) of 0.55 nM, an IC50 (Recombinant ROCK2) of 0.24 nM and an IC50 (pMLC2; PASMC, 0.5 h) of 42 nM. For the same compound, the IC50 (pMYPT1; PASMC, 0.5 h) was 62 nM and the EC50 (HepG2 cells) was over 200 µM.
N#Cc1cccc(C(CN)C(=O)Nc2cccc3c(-c4cn[nH]c4)c[nH]c23)c1 (single isomer, unassigned) [Example 20, N-(3-(1H-pyrazol-4-yl)-1H-indol-7-yl)-3-amino-2-(3-cyanophenyl)propanamide] gave an IC50 (Recombinant ROCK1) of 2.8 nM, an IC50 (Recombinant ROCK2) of 1.3 nM and an IC50 (pMLC2; PASMC, 0.5 h) of 38 nM. The IC50 (pMYPT1; PASMC, 0.5 h) was 41 nM and the EC50 (HepG2 cells) was over 200 µM.
Work on COc1cccc(C(CN)C(=O)Nc2cccc3c(-c4cn[nH]c4)c[nH]c23)c1 (single isomer, unassigned) [Example 18, N-(3-(1H-pyrazol-4-yl)-1H-indol-7-yl)-3-amino-2-(3-methoxyphenyl)propanamide] yielded an IC50 (Recombinant ROCK1) of 0.3 nM, an IC50 (Recombinant ROCK2) of 0.14 nM and an IC50 (pMLC2; PASMC, 0.5 h) of 4.2 nM. For the same compound, the IC50 (pMYPT1; PASMC, 0.5 h) was 5.6 nM and the EC50 (HepG2 cells) was 10.9 µM.
For CN1CCN(CC(C(=O)Nc2cccc3c(-c4cn[nH]c4)c[nH]c23)c2ccccc2)CC1 (racemic) [Example 37, N-(3-(1H-pyrazol-4-yl)-1H-indol-7-yl)-3-(4-methylpiperazin-1-yl)-2-phenylpropanamide], the IC50 (Recombinant ROCK1) was 0.71 nM, the IC50 (Recombinant ROCK2) was 0.43 nM and the IC50 (pMLC2; PASMC, 0.5 h) was 8 nM. It also gave an IC50 (pMYPT1; PASMC, 0.5 h) of 6.2 nM.
N#Cc1ccc(C(CN)C(=O)Nc2cccc3c(-c4cn[nH]c4)c[nH]c23)cc1 (single isomer, unassigned) [Example 59, N-(3-(1H-pyrazol-4-yl)-1H-indol-7-yl)-3-amino-2-(4-cyanophenyl)propanamide] gave an IC50 (Recombinant ROCK1) of 2.7 nM, an IC50 (Recombinant ROCK2) of 0.83 nM and an IC50 (pMLC2; PASMC, 0.5 h) of 61 nM. It also gave an IC50 (pMYPT1; PASMC, 0.5 h) of 155 nM and an EC50 (HepG2 cells) of over 66.6 µM.
In the case of NC[C@@H](C(=O)Nc1ccc2cnccc2c1)c1ccc(CO)cc1 [Netasudil-M1], the IC50 (pMLC2) is reported as 14 nM and the IC50 (pMYPT1) is reported as 22 nM.
With NC(C(=O)Nc1cccc2c(-c3cn[nH]c3)c[nH]c12)c1ccccc1 (racemic) [Example 7, N-(3-(1H-pyrazol-4-yl)-1H-indol-7-yl)-2-amino-2-phenylacetamide] the IC50 (Recombinant ROCK1) was 34 nM and the IC50 (pMLC2; PASMC, 0.5 h) was 13 nM.
Work on N[C@H](C(=O)Nc1cccc2c(-c3cn[nH]c3)c[nH]c12)c1ccccc1 [Example 9, (2S)-2-amino-2-phenyl-N-[3-(1H-pyrazol-4-yl)-1H-indol-7-yl]acetamide] yielded an IC50 (Recombinant ROCK1) of 0.24 nM, an IC50 (pMLC2; PASMC, 0.5 h) of 15 nM and an IC50 (pMYPT1; PASMC, 0.5 h) of 2.2 nM.
NC[C@@H](NC(=O)c1cccc2c(-c3cn[nH]c3)n[nH]c12)c1ccccc1 [Example 135, N-[(1S)-2-amino-1-phenyl-ethyl]-3-(1H-pyrazol-4-yl)-1H-indazole-7-carboxamide] gave an IC50 (Recombinant ROCK1) of 4.5 nM, an IC50 (Recombinant ROCK2) of 1.2 nM and an IC50 (pMLC2; PASMC, 0.5 h) of 1.3 nM. The IC50 (pMYPT1; PASMC, 0.5 h) was 26 nM.
For NCC(C(=O)Nc1cccc2c(-c3cn[nH]c3)c[nH]c12)C1CCCOC1 (centres unmarked) [Example 91, 3-amino-2-(oxan-3-yl)-N-[3-(1H-pyrazol-4-yl)-1H-indol-7-yl]propanamide], the IC50 (Recombinant ROCK1) was 1.2 nM, the IC50 (Recombinant ROCK2) was 0.75 nM and the EC50 (HepG2 cells) was 24.4 µM.
With NCC(C(=O)Nc1cccc2c(-c3cn[nH]c3)c[nH]c12)c1cccnc1 (racemic) [Example 31, N-(3-(1H-pyrazol-4-yl)-1H-indol-7-yl)-3-amino-2-(pyridin-3-yl)propanamide] the IC50 (Recombinant ROCK1) was 1.2 nM, the IC50 (Recombinant ROCK2) was 0.48 nM and the IC50 (pMLC2; PASMC, 0.5 h) was 31 nM. The EC50 (HepG2 cells) was over 50 µM.
N#Cc1cccc(C(CN)C(=O)Nc2cccc3c(-c4cn[nH]c4)c[nH]c23)c1 (racemic) [Example 19, N-(3-(1H-pyrazol-4-yl)-1H-indol-7-yl)-3-amino-2-(3-cyanophenyl)propanamide] showed an IC50 (Recombinant ROCK1) of 2.2 nM, an IC50 (Recombinant ROCK2) of 0.92 nM and an EC50 (HepG2 cells) of over 50 µM.
NCC(C(=O)Nc1cccc2c(-c3cn[nH]c3)c[nH]c12)C1CCCCC1 (single isomer, unassigned) [Example 23, N-(3-(1H-pyrazol-4-yl)-1H-indol-7-yl)-3-amino-2-cyclohexylpropanamide] showed an IC50 (Recombinant ROCK1) of 0.19 nM, an IC50 (Recombinant ROCK2) of 0.13 nM and an IC50 (pMLC2; PASMC, 0.5 h) of 3.5 nM. It also gave an IC50 (pMYPT1; PASMC, 0.5 h) of 4.3 nM.
CNC(=O)OCc1cccc(C(CN)C(=O)Nc2cccc3c(-c4cn[nH]c4)c[nH]c23)c1 (racemic) [Example 49, 3-(1-((3-(1H-pyrazol-4-yl)-1H-indol-7-yl)amino)-3-amino-1-oxopropan-2-yl)benzyl methylcarbamate] was tested, and the IC50 (Recombinant ROCK1) was 0.86 nM, the IC50 (Recombinant ROCK2) was 0.65 nM and the EC50 (HepG2 cells) was over 200 µM.
Compound NCC(C(=O)Nc1cccc2c(-c3cn[nH]c3)c[nH]c12)c1ccc(C(N)=O)cc1 (racemic) [Example 74, 4-(1-((3-(1H-pyrazol-4-yl)-1H-indol-7-yl)amino)-3-amino-1-oxopropan-2-yl)benzamide] has an IC50 (Recombinant ROCK1) of 2 nM, an IC50 (Recombinant ROCK2) of 0.62 nM and an EC50 (HepG2 cells) of over 200 µM.
COc1cccc(C(CN)NC(=O)c2cccc3c(-c4cn[nH]c4)c[nH]c23)c1 (single isomer, unassigned) [Example 136, N-(2-amino-1-(3-methoxyphenyl)ethyl)-3-(1H-pyrazol-4-yl)-1H-indole-7-carboxamide] showed an IC50 (Recombinant ROCK1) of 0.62 nM, an IC50 (Recombinant ROCK2) of 0.24 nM and an IC50 (pMLC2; PASMC, 0.5 h) of 5.1 nM. The IC50 (pMYPT1; PASMC, 0.5 h) was 1.9 nM.
For CN1CCC(C(C(=O)Nc2cccc3c(-c4cn[nH]c4)c[nH]c23)c2ccccc2)CC1 (racemic) [Example 43, N-(3-(1H-pyrazol-4-yl)-1H-indol-7-yl)-2-(1-methylpiperidin-4-yl)-2-phenylacetamide], the IC50 (Recombinant ROCK1) was 1.3 nM, the IC50 (Recombinant ROCK2) was 0.66 nM and the IC50 (pMLC2; PASMC, 0.5 h) was 102 nM. For the same compound, the IC50 (pMYPT1; PASMC, 0.5 h) was 18 nM.
In the case of NCC(Cc1ccccc1)C(=O)Nc1cccc2c(-c3cn[nH]c3)c[nH]c12 (racemic) [Example 52, 3-amino-2-benzyl-N-[3-(1H-pyrazol-4-yl)-1H-indol-7-yl]propanamide], the IC50 (Recombinant ROCK1) is reported as 0.93 nM, the IC50 (Recombinant ROCK2) is reported as 0.59 nM and the IC50 (pMLC2; PASMC, 0.5 h) is reported as 12 nM.
With NCC(C(=O)Nc1cccc2c(-c3cn[nH]c3)c[nH]c12)c1ccc(CO)nc1 (single isomer, unassigned) [Example 60, N-(3-(1H-pyrazol-4-yl)-1H-indol-7-yl)-3-amino-2-(6-(hydroxymethyl)pyridin-3-yl)propanamide] the IC50 (Recombinant ROCK1) was 2.3 nM, the IC50 (Recombinant ROCK2) was 0.7 nM and the EC50 (HepG2 cells) was over 50 µM.
COc1cccc(C(CN)C(=O)Nc2ncnc3c(-c4cn[nH]c4)c[nH]c23)c1 (centres unmarked) [Example 154, N-(7-(1H-pyrazol-4-yl)-5H-pyrrolo[3,2-d]pyrimidin-4-yl)-3-amino-2-(3-methoxyphenyl)propanamide] showed an IC50 (pMLC2; PASMC, 0.5 h) of 8.3 nM.
Work on NCCN1CCN(C(C(=O)Nc2cccc3c(-c4cn[nH]c4)c[nH]c23)c2ccccc2)CC1 (racemic) [Example 105, 2-[4-(2-aminoethyl)piperazin-1-yl]-2-phenyl-N-[3-(1H-pyrazol-4-yl)-1H-indol-7-yl]acetamide] yielded an IC50 (Recombinant ROCK1) of 0.42 nM, an IC50 (Recombinant ROCK2) of 0.22 nM and an IC50 (pMLC2; PASMC, 0.5 h) of 95 nM. The EC50 (HepG2 cells) was 23.6 µM.
Work on Cc1ccc(C(=O)OCc2ccc([C@@H](CN)C(=O)Nc3ccc4cnccc4c3)cc2)c(C)c1 [Netarsudil] yielded an EC50 (HepG2 cells) of 0.89 µM.
